Assays:
[1] = biological target: T. brucei N-myristoyl transferase (Trypanosoma brucei brucei (strain 927/4 GUTat10.1), UniProt Q388H8); assay: biochemical; format: biochemical; conditions: value printed without enzyme tag in the NMT Enzyme column (taken as T. brucei NMT); read-out: IC50 (μM) NMT Enzyme
[2] = tested on: Trypanosome (T. brucei brucei); assay: In-vitro antitrypanosomal efficacy assay (cell growth, resazurin); format: cell-based; conditions: T. brucei cell growth
Method: To column 12, 200 μl media was added to provide a no cells control. Plates were then incubated at 37° C. in an atmosphere of 5% CO2 for 69 hours, before the addition of 20 μl of 500 μM rezasurin solution, and a further incubation period of 4 hours. […] Concentration effect curves were fitted using non-linear regression using XLFit 4.2 and EC50 values determined.

Sequence of T. brucei N-myristoyl transferase (Q388H8 1-446): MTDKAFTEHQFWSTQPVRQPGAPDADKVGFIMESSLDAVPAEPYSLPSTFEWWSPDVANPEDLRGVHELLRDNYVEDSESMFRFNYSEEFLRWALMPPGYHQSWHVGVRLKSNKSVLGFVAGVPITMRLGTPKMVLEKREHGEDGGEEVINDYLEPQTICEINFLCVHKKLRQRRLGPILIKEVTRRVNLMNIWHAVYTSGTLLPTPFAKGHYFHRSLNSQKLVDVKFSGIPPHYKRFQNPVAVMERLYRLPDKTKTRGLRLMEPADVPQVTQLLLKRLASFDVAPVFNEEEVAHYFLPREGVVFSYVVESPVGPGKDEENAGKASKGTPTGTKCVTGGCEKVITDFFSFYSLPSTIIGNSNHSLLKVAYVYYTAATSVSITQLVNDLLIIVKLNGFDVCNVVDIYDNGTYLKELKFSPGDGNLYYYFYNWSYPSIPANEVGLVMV

SMILES	IC50 [1] [µM]	ED50 (μM) T. brucei [2] [µM]
Cc1nn(C)c(C)c1N[S+](=O)([O-])c1ccc([S+](=O)([O-])N2CCCC2)cc1 [DDD71607]	> 100	>1
Cc1cc(C(=O)O)cc([S+](=O)([O-])Nc2c(C)nn(C)c2C)c1C [DDD71608]	> 100	>1
COc1ccc([S+](=O)([O-])Nc2c(C)nn(C)c2C)cc1NC(C)=O [DDD71622]	41	>1
COc1cc([S+](=O)([O-])Nc2c(C)nn(C)c2C)ccc1NC(C)=O [DDD71623]	42	>1
COc1cc(C)c([S+](=O)([O-])Nc2cc[nH]n2)c(C)c1C [DDD71630]	> 100	>1
Cc1nn(C)c(C)c1N[S+](=O)([O-])c1ccc2c(c1)C(C)C(=O)N2 (centres unmarked) [DDD71637]	11.7	>1
COc1cc(C)c([S+](=O)([O-])n2ccc(N)n2)c(C)c1C [DDD71644]	> 100	>1
COc1cc(C)c([S+](=O)([O-])Nc2c(C)cc(C)cc2C)c(C)c1C [DDD71645]	> 100	>1
CC(=O)Nc1cc(C)c([S+](=O)([O-])Nc2c(C)nn(C)c2C)s1 [DDD73219]	69	>1
Cc1nn(C)c(C)c1N[S+](=O)([O-])c1sc2ccc(F)cc2c1C [DDD73221]	6.6	>1
Cc1nn(C)c(C)c1N[S+](=O)([O-])c1ccc(NCCCO)nc1 [DDD73222]	1	>1
Cc1nn(C)c(C)c1N[S+](=O)([O-])c1ccc(CN2CCNC(=O)C2)cc1 [DDD73225]	> 100	>1
Cc1nn(C)c(C)c1N[S+](=O)([O-])c1ccc(CN2CCCCC2)cc1 [DDD73226]	> 100	>1
Cc1nn(C)c(C)c1N[S+](=O)([O-])c1ccc(N2CCc3ccccc3C2)nc1 [DDD73227]	0.9	8.1
Cc1nn(C)c(C)c1N[S+](=O)([O-])c1ccc(N2CCN(c3ccc(F)cc3)CC2)nc1 [DDD73230]	10.7	>1
COc1ccc(SCc2ccc([S+](=O)([O-])Nc3c(C)nn(C)c3C)cc2)cc1 [DDD73231]	0.76	6.7
Cc1nn(C)c(C)c1N[S+](=O)([O-])c1ccc(Cn2ccnc2)cc1 [DDD73232]	1.9	18.6
Cc1nn(C)c(C)c1N[S+](=O)([O-])c1ccc(NCc2cccnc2)nc1 [DDD73233]	2.7	>1
Cc1nn(C)c(C)c1N[S+](=O)([O-])c1ccc(N2CCN(C)CC2)nc1 [DDD73236]	11.9	>1
Cc1nn(C)c(C)c1N[S+](=O)([O-])c1cc([S+](=O)([O-])c2ccccc2)cs1 [DDD73237]	10.4	>1
Cc1nn(C)c(C)c1N[S+](=O)([O-])c1ccc(CNC(=O)c2ccccc2)s1 [DDD73238]	0.63	6.9
Cc1nn(C)c(C)c1N[S+](=O)([O-])c1ccc(NCCN2CCOCC2)nc1 [DDD73239]	38.7	>50
Cc1nn(C)c(C)c1N[S+](=O)([O-])c1cccc2c(N(C)C)cccc12 [DDD73240]	1.6	>1
Cc1nn(C)c(C)c1N[S+](=O)([O-])c1ccc([S+](C)(=O)[O-])cc1 [DDD73241]	4.2	>1
Cc1nn(C)c(C)c1N[S+](=O)([O-])c1ccc(-c2cc(C(F)(F)F)n(C)n2)s1 [DDD73242]	32	>1
Cc1nn(C)c(C)c1N[S+](=O)([O-])c1ccc(CN2C(=O)CSC2=O)cc1 [DDD73243]	5.8	>1
Cc1nn(C)c(C)c1N[S+](=O)([O-])c1ccc(CNCc2ccccc2)cc1 [DDD73265]	22.5	>1
CCCn1ncc(N[S+](=O)([O-])c2c(C)cc(OC)c(C)c2C)n1 [DDD73266]	> 100	>1

SMILES	IC50 [1] [µM]	ED50 (μM) T. brucei [2] [µM]
CCc1ccc(-c2cc(Cl)c([S+](=O)([O-])Nc3c(C)nn(C)c3C)c(Cl)c2)cc1 [DDD73267]	44.5	>1
Cc1nn(C)c(C)c1N[S+](=O)([O-])c1c(Cl)cc(-c2ccco2)cc1Cl [DDD73268]	3.6	>1
CCCn1cc(N[S+](=O)([O-])c2c(C)cc(OC)c(C)c2C)nn1 [DDD73269]	> 100	>1
COc1cc(C)c([S+](=O)([O-])Nc2c(C)nn(C)c2N2CCOCC2)c(C)c1C [DDD73271]	> 100	>1
Cc1nn(C)c(C)c1N[S+](=O)([O-])c1c(Cl)cc(-c2cccc(OCC(C)C)c2)cc1Cl [DDD73272]	35	>1
Cc1nn(C)c(C)c1N[S+](=O)([O-])c1c(Cl)cc(-c2cccc(C(F)(F)F)c2)cc1Cl [DDD73277]	40	>1
Cc1nn(C)c(C)c1N[S+](=O)([O-])c1c(Cl)cc(-c2cccc3cnccc23)cc1Cl [DDD73278]	26.9	>1
Cc1nn(C)c(C)c1N[S+](=O)([O-])c1c(Cl)cc(-c2cccc(C(N)=O)c2)cc1Cl [DDD73279]	1.1	2.1
Cc1nn(C)c(C)c1N[S+](=O)([O-])c1c(Cl)cc(-c2cc3ccccc3o2)cc1Cl [DDD73280]	20.7	>1
Cc1nn(C)c(C)c1N[S+](=O)([O-])c1ccc(NCc2cccc(N(C)C)c2)nc1 [DDD73320]	2.6	16.3
COc1cc(OC)cc(-c2cc(Cl)c([S+](=O)([O-])Nc3c(C)nn(C)c3C)c(Cl)c2)c1 [DDD73321]	4.3	>1
Cc1nn(C)c(C)c1N[S+](=O)([O-])c1ccc(NC(C)c2ccccc2)nc1 (centres unmarked) [DDD73322]	0.86	5.4
Cc1nn(C)c(C)c1N[S+](=O)([O-])c1ccc(NCc2ccc(Cl)c(Cl)c2)nc1 [DDD73325]	12.8	>1
Cc1nn(C)c(C)c1N[S+](=O)([O-])c1ccc(NCc2ccc3c(c2)OCO3)nc1 [DDD73326]	1.4	>1
Cc1nn(C)c(C)c1N[S+](=O)([O-])c1ccc(NCCCc2ccccc2)nc1 [DDD73327]	2.8	>1
COc1ccccc1CNc1ccc([S+](=O)([O-])Nc2c(C)nn(C)c2C)cn1 [DDD73328]	2.4	19.1
COc1cccc(CNc2ccc([S+](=O)([O-])Nc3c(C)nn(C)c3C)cn2)c1 [DDD73329]	1.6	>1
Cc1nn(C)c(C)c1N[S+](=O)([O-])c1ccc(NCC(O)c2ccccc2)nc1 (centres unmarked) [DDD73330]	2.3	>1
Cc1nn(C)c(C)c1N[S+](=O)([O-])c1ccc(N2Cc3ccccc3CC2CO)nc1 (centres unmarked) [DDD73331]	6	>1
Cc1nn(C)c(C)c1N[S+](=O)([O-])c1ccc(NCc2ccc3[nH]ccc3c2)nc1 [DDD73332]	0.34	3.2
Cc1nn(C)c(C)c1N[S+](=O)([O-])c1ccc(NC(CO)c2ccccc2)nc1 (centres unmarked) [DDD73333]	> 100	>1
Cc1nn(C)c(C)c1N[S+](=O)([O-])c1ccc(NCc2ccc(N3CCOCC3)cc2)nc1 [DDD73475]	0.88	10.5
Cc1nn(C)c(C)c1N[S+](=O)([O-])c1ccc(NCc2nc3ccccc3s2)nc1 [DDD73477]	0.46	6.0
Cc1nn(C)c(C)c1N[S+](=O)([O-])c1ccc(NC2Cc3ccccc3C2)nc1 [DDD73478]	0.36	4.5
Cc1nn(C)c(C)c1N[S+](=O)([O-])c1c(Cl)cc(C#CC2CCCCC2)cc1Cl [DDD73479]	> 100	>1
Cc1nn(C)c(C)c1N[S+](=O)([O-])c1ccc(Nc2ccccc2)nc1 [DDD73480]	4.5	22.1
Cc1nn(C)c(C)c1N[S+](=O)([O-])c1ccc(N2CCC(c3ccccc3)CC2)nc1 [DDD73481]	6.9	>1
